According to patent publication US20080031982A1 (Metaproteomics, LLC, priority 2006, published 2008):
Marks after values point to notes of the source that are not given here.

How the values were obtained:
[1] = system: LPS-treated 3T3-L1 adipocytes; assay: Adiponectin secretion in LPS/3T3-L1 adipocytes; assay type: cell-based, murine; settings: for Maximum adiponectin stimulation / concentration of maximum adiponectin stimulation: 100 ng/ml LPS
3T3-L1 adipocytes = assay: Lipogenesis in 3T3-L1 adipocytes (Oil Red O / BODIPY); assay type: cell-based, murine; settings: for adipogenic / lipogenic response: relative to solvent and positive controls
Experimental: Prior to experiments, cells were cultured in DMEM containing 10% FBS-HI added 50 units penicillin/ml and 50 μg streptomycin/ml, and maintained in log phase prior to experimental setup. Cells were grown in a 5% CO2 humidified incubator at 37° C. Components of the pre-confluent medium included (1) 10% FBS/DMEM containing 4.5 g glucose/L; (2) 50 U/ml penicillin; and (3) 50 μg/ml streptomycin. Growth medium was made by adding 50 ml of heat inactivated FBS and 5 ml of penicillin/streptomycin to 500 ml DMEM. This medium was stored at 4° C. Before use, the medium was warmed to 37° C. in a water bath.
3T3-T1 cells were seeded at an initial density of 6×10^4 cells/cm^2 in 24-well plates. For two days, the cells were allowed grow to reach confluence. Following confluence, the cells were forced to differentiate into adipocytes by the addition of differentiation medium; this medium consisted of (1) 10% FBS/DMEM (high glucose); (2) 0.5 mM methylisobutylxanthine; (3) 0.5 μM dexamethasone and (4) 10 μg/ml insulin (MDI medium). After three days, the medium was changed to post-differentiation medium consisting of 10 μg/ml insulin in 10% FBS/DMEM.
Whenever fresh media were added, fresh test material was also added.
Oil Red 0 Staining—Triglyceride content of D6/D7-differentiated 3T3-L1 cells was estimated with Oil Red 0 according to the method of Kasturi and Joshi [Kasturi, R. and Joshi, V. C. […] Monolayer cells were washed with PBS (phosphate buffered saline, Mediatech) and fixed with 10% formaldehyde for ten minutes. Fixed cells were stained with an Oil Red 0 working solution of three parts 0.6% Oil Red O/isopropanol stock solution and two parts water for one hour and the excess stain was washed once with water. The resulting stained oil droplets were extracted from the cells with isopropanol and quantified by spectrophotometric analysis at 540 nm (MEL312e BIO-KINETICS READER, Bio-Tek Instruments, Winooski, Vt.).
Briefly, media were removed and cells were washed once with non-sterile PBS. A stock 1000× BODIPY/DMSO solution was made by dissolving 1 mg BODIPY in 1 ml DMSO (1,000 μg BODIPY/ml). […] One-hundred μl of this working solution (1 μg BODIPY) was added to each well of a 96-well microtiter plate. After 15 min on an orbital shaker (DS-500, VWR Scientific Products, South Plainfield, N.J.) at ambient temperature, the cells were washed with 100 μl PBS followed by the addition of 100 μl PBS for reading for spectrofluorometric determination of BODIPY incorporation into the cells.
Nonpolar lipid incorporation was represented relative to the nonpolar lipid accumulation of fully differentiated cells in the solvent controls.

[2] = system: insulin-resistant 3T3-L1 adipocytes; assay: Adiponectin secretion from insulin-resistant 3T3-L1 adipocytes; assay type: cell-based, murine; settings: 50.0 μg/ml, ratio of the indices (Table 21)
Experimental: 3T3-L1 cells were seeded at an initial density of 1×10^4 cells/cm^2 in 96-well plates. For two days, the cells were allowed grow to reach confluence. Following confluence, the cells were forced to differentiate into adipocytes by the addition of differentiation medium; this medium consisted of (1) 10% FBS/DMEM (high glucose); (2) 0.5 mM methylisobutylxanthine; (3) 0.5 μM dexamethasone and (4) 10 μg/ml insulin (MDI medium). From Day 3 through Day 5, the medium was changed to post-differentiation medium consisting of 10 μg/ml insulin in 10% FBS/DMEM.
Briefly, on Day 6, cells were maintained in serum-free media containing 0.5% bovine serum albumin (BSA) for three hours and then treated with 1 μg insulin/ml plus solvent or insulin plus test material. […] Twenty-four hours later, the supernatant medium was sampled for adiponectin determination.
Adiponectin Assay—The adiponectin secreted into the medium was quantified using the Mouse Adiponectin Quantikine® Immunoassay kit with no modifications (R&D Systems, Minneapolis, Minn.).
Substituting {relative adiponectin secretion/[concentration]} for the independent variable v/[S] and {relative adiponectin secretion} for the dependant variable {v}, produced a relationship of the form y=mx+b. […]

[3] = system: LPS-stimulated 3T3-L1 adipocytes; assay: IL-6 secretion in LPS/3T3-L1 adipocytes; assay type: cell-based, murine; settings: at the concentration of maximum inhibition, 100 ng LPS/ml; for IL-6 Index: indexed to LPS control
[4] = system: TNFα-treated 3T3-L1 adipocytes; assay: Adiponectin secretion from TNFα-treated 3T3-L1 adipocytes; assay type: cell-based, murine; settings: for maximum increase of adiponectin secretion from TNFα control: 10 ng/ml TNFα
Experimental: For two days, the cells were allowed grow to reach confluence. […] (3) 0.5 μM dexamethasone and (4) 10 μg/ml insulin (MDI medium). […] Adiponectin Assay—The adiponectin secreted into the medium was quantified using the Mouse Adiponectin Quantikine® Immunoassay kit with no modifications (R&D Systems, Minneapolis, Minn.). […] Statistical Calculations and Interpretation—All assays were preformed in duplicate. […] Differences among the doses and test agents were determined using the Student's t-test without correction for multiple comparisons; the nominal five percent probability of a type I error was selected.

[5] = Non-fasting serum glucose in db/db diabetic mice; assay type: in vivo
Experimental: The Model—Male, C57BLKS/J m^+/m^+ Lepr^db (db/db) mice were used to assess the potential of the test materials to reduce fasting serum glucose or insulin concentrations. This strain of mice is resistant to leptin by virtue of the absence of a functioning leptin receptor.
Testing Procedure—Test substances were administered daily by gavage in 0.2% Tween-80. Serum was collected from the retroorbital sinus before the initial dose and ninety minutes after the third and final dose. Non-fasting serum glucose was determined enzymatically by the mutarotase/glucose oxidase method and serum insulin was determined by a mouse specific ELISA.
Testing Procedure—Test substances were administered daily by gavage in 0.2% Tween-80. Serum was collected from the retroorbital sinus before the initial dose and ninety minutes after the fifth and final dose. Non-fasting serum glucose was determined enzymatically by the mutarotase/glucose oxidase method and serum insulin was determined by a mouse specific ELISA.

[6] = Serum cytokine (IL-6, TNF-α) analysis, collagen induced arthritis; assay type: in vivo, DBA/J mice; settings: 10 mg/kg
Experimental: Cytokine analysis—Serum was collected from the mice at the termination of the experiment for cytokine analysis. The volume of sample being low (˜0.2-0.3 ml/mouse), samples from the ten mice were randomly allocated into two pools of five animals each. This was done so to permit repeat analyses; each analysis was performed a minimum of two times. TNF-α and IL-6 were analyzed using mouse specific reagents (R&D Systems, Minneapolis, Minn.) according to the manufacturer's instructions.

PGE2 biosynthesis = PGE2 biosynthesis in A549 cells stimulated by mite dust allergen; assay type: cell-based, human; settings: 10 μg/ml
Source text: Mite dust allergen isolation—Dermatophagoides farinae is the American house dust mite. D. farinae were raised on a 1:1 ratio of Purina Laboratory Chow (Ralston Purina, Co, St. Louis, Mo.) and Fleischmann's granulated dry yeast (Standard Brands, Inc. New York, N.Y.) at room temperature and 75% humidity. Live mites were aspirated from the culture container as they migrated from the medium, killed by freezing, desiccated and stored at 0% humidity. The allergenic component of the mite dust was extracted with water at ambient temperature. Five-hundred mg of mite powder were added to 5 ml of water (1:10 w/v) in a 15 ml conical centrifuge tube (VWR, Rochester, N.Y.), shaken for one minute and allowed to stand overnight at ambient temperature. The next day, the aqueous phase was filtered using a 0.2 μm disposable syringe filter (Nalgene, Rochester, N.Y.). The filtrate was termed mite dust allergen and used to test for induction of PGE2 biosynthesis in A549 pulmonary epithelial cells.
Cell culture and treatment—The human airway epithelial cell line, A549 (American Type Culture Collection, Bethesda, Md.) was cultured and treated as previously described in Example 6. Mite allergen was added to the culture medium to achieve a final concentration of 1000 ng/ml. Eighteen hours later, the media were sampled for PGE2 determination.

[7] = at the concentration of maximum stimulation

## CC(=O)Oc1ccccc1C(=O)O [Aspirin, aspirin]
[1]
  Maximum adiponectin stimulation: failed to induce adiponectin secretion

## CC(C)CCC1=C(O)C(C(=O)C(C)C)=C(O)C(CCC(C)C)(CCC(C)C)C1=O [Hexahydro colupulone, hexahydrocolupulone]
3T3-L1 adipocytes
  adipogenic / lipogenic response: failed to elicit a lipogenic response greater than the solvent controls

## CC(C)CCC1=C(O)C(C(=O)C(C)C)=C(O)C(CCC(C)C)(CCC(C)C)C1=O [Hexahydrocolupulone (HHCL)]
[2]
  Adiponectin/IL-6: 0.60#

## COc1ccc2c(c1)c(CC(=O)O)c(C)n2C(=O)c1ccc(Cl)cc1 [Indomethacin, indomethacin]
[3]
  % Inhibition of IL-6 secretion (maximum): 53* %
[1]
  Maximum adiponectin stimulation: 9%
[1]; [7]
  % Stimulation of adiponectin secretion (maximum): 9%
3T3-L1 adipocytes
  adipogenic / lipogenic response: induced lipogenesis

## CCc1ccc(CCOc2ccc(CC3SC(=O)NC3=O)cc2)nc1 (centres unmarked) [Pioglitazone, pioglitazone]
[3]
  IL-6 Index: 0.37*
[4]
  maximum increase of adiponectin secretion from TNFα control: 80%
[4]; 1.0 μg/ml (Table 26)
  Adiponectin Index Observed: 1.80
[1]
  concentration of maximum adiponectin stimulation: 1.25 µg/mL
[1]; [7]
  % Stimulation of adiponectin secretion (maximum): 12%

## Cc1c(C)c2c(c(C)c1O)CCC(C)(COc1ccc(CC3SC(=O)NC3=O)cc1)O2 (centres unmarked) [Troglitazone, troglitazone]
[4]
  maximum increase of adiponectin secretion from TNFα control: 51%
[1]
  concentration of maximum adiponectin stimulation: 0.625 µg/mL
[1]; [7]
  % Stimulation of adiponectin secretion (maximum): 15%

## CC(C)Cc1ccc(C(C)C(=O)O)cc1 (centres unmarked) [ibuprofen]
[1]
  concentration of maximum adiponectin stimulation: 0.625 µg/mL
[1]; [7]
  % Stimulation of adiponectin secretion (maximum): 22%

## CN(C)C(=N)N=C(N)N [metformin, reference compound]
[5]; three consecutive days
  serum glucose relative to controls: decreased
3T3-L1 adipocytes; Oil Red O, 50 μg/ml
  lipogenic index (triglyceride content relative to solvent control): 0.79

## C[C@]12C=CC(=O)C=C1CC[C@@H]1[C@@H]2[C@@H](O)C[C@@]2(C)[C@H]1CC[C@]2(O)C(=O)CO [prednisolone]
[6]
  reduction of serum IL-6 levels: reached a statistical significance

## CN(CCOc1ccc(CC2SC(=O)NC2=O)cc1)c1ccccn1 (centres unmarked) [rosiglitazone]
[5]; 1.0 mg/kg-day by gavage, three days, db/db mice, non-fasting serum
  Glucose [% Pretreatment]: 83.0# % Pretreatment

## O=C(O)c1ccccc1O [salicylic acid]
[3]
  IL-6 Index: 0.52*
[1]
  Maximum adiponectin stimulation: failed to induce adiponectin secretion
[1]; at the concentration of maximum stimulation, indexed to LPS control
  Adiponectin Index: 0.96

## Beta acids
PGE2 biosynthesis
  Percent PGE2 Inhibition: 83%
3T3-L1 adipocytes
  adipogenic / lipogenic response: comparable to indomethacin and troglitazone
